Measurements reported in patent US9586986B2, “Substituted 7-deazapurine ribonucleosides for therapeutic uses” (Institute of Organic Chemistry and Biochemistry ASCR, v.v.i., priority 2014, dated 2017).
pEC50, pIC50: −log10 of the molar value.

Key:
Assay type in all cases: cell-based
[1] = tested on: HepG2; assay: XTT cytotoxicity assay, HepG2; details: Homo sapiens, HepG2; 72 h incubation; read-out: XTT, IC50 HepG2
Protocol: (§1) HL-60, Hela S3 and HepG2 cell lines (ATCC) were grown in RPMI-1640 or DMEM medium supplemented with 10% fetal calf serum, […] of streptomycin, 200 U/mL of penicillin G and 4 mM glutamine in a humidified atmosphere containing 5% CO2 at 37° C. Sensitivity of these cell lines to the synthesized compounds was assessed with the use of XTT cell proliferation kit II (Roche Diagnostics GmbH, Mannheim, Germany) according to the manufacturer's instructions. Briefly, cells were seeded in a 96-well plate at a density of 10,000 cells per well (90 μL). After 24 h, 10 μL of the tested compounds were added to the culture media at desired concentration range and incubated for 72 h. After that 50 μL of the XTT solution was added (1 mg/mL XTT+0.383 mg/mL N-methyl dibenzopyrazine methyl sulfate). The absorbance was recorded at 495 nm following a 2 h-incubation with the dye. IC50 values were determined by non-linear regression method using GraphPad Prism version 5.00 for Windows (GraphPad Software, La Jolla, Calif., USA).

[2] = tested on: HCT116; assay: Cytostatic/cytotoxic MTT assay, HCT116; details: Homo sapiens, HCT-116; 72 h incubation; read-out: MTT, IC50 HCT116
Excerpt: Unless otherwise stated, all cells were purchased from the […] (ATCC). The CCRF-CEM line is derived from T lymphoblastic leukemia, evincing high chemosenzitivity, K562 represent cells from a […] patient sample with bcr-abl translocation, HCT116 is colorectal tumor cell line and its p53 gene knock-down counterpart (HCT116p53−/−, Horizon Discovery, UK) is a model of human cancers with p53 inactivation frequently associated with poor prognosis, A549 cell line is lung adenocarcinoma. The daunorubicin resistant subline of CCRF-CEM cells (CEM-DNR bulk) and paclitaxel resistant subline K562-TAX were selected in our laboratory by cultivation of maternal cell lines in increasing concentrations of daunorubicine or paclitaxel, respectively. The CEM-DNR cells overexpress mrp-1 and mdr-1 genes, while K562-TAX cells overexpress mdr-1 only. Both proteins belong to the family of ABC transporters and are involved in the primary and/or acquired multidrug resistance phenomenon (ref.: Gottesman, M. M.; Fojo, T.; Bates, S. E. Multidrug resistance in cancer: role of ATP-dependent transporters. Nat. Rev. Cancer. 2002, 2, 48-58. (b) Noskova, V.; Dzubak, P.; Kuzmina, G.; Ludkova, A.; Stehlik, D.; Trojanec, R.; Janostakova, A.; Korinkova, G.; Mihal, V.; Hajduch, M. In vitro chemoresistance profile and expression/function of MDR associated proteins in resistant cell lines derived from CCRF-CEM, K562, A549 and MDA MB 231 parental cells. Neoplasma 2002, 49, 418-425). Non-malignant MRC-5 and BJ cells, derived from normal human fibroblasts, were used as controls. The cells were maintained in Nunc/Corning 80 cm^2 plastic tissue culture flasks and cultured in cell culture medium (DMEM/RPMI 1640 with 5 g/L glucose, 2 mM glutamine, 100 U/mL penicillin, 100 µg/mL streptomycin, 10% fetal calf serum, and NaHCO3). Cell suspensions were prepared and diluted according to the particular cell type and the expected target cell density (25,000-30,000 cells/well based on cell growth characteristics). Cells were added by pipette (80 L) into 96-well microtiter plates. Inoculates were allowed a pre-incubation period of 24 h at 37° C. and 5% CO2 for stabilization. Four-fold dilutions, in 20-L aliquots, of the intended test concentration were added to the microtiter plate walls at time zero. All test compound concentrations were examined in duplicate. Incubation of the cells with the test compounds lasted for 72 h at 37° C., in a 5% CO2 atmosphere at 100% humidity. At the end of the incubation period, the cells were assayed using MTT. Aliquots (10 L) of the MTT stock solution (5 mg/ml) were pipetted into each well and incubated for another 1-4 h. After this incubation period the formazan produced was dissolved by addition of 100 µL/well of 10% aq SDS (pH 5.5), followed by a further incubation at 37° C. overnight. The optical density was measured at 540 nm. The IC50 value, the drug concentration inhibiting the cell growth by 50%, was calculated from appropriate dose-response curves.
In vitro cytotoxic/cytostatic activity final nucleosides 1-5 was initially evaluated against […] cell lines derived from human solid tumors including lung (A549 cells) and colon (HCT116 and HCT116p53−/−) carcinomas, as well as leukemia cell lines (CCRF-CEM, CEM-DNR, K562 and K562-TAX) and, for comparison, non-malignant BJ and MRC-5 fibroblasts. Concentrations inhibiting the cell growth by 50% (IC50) were determined using a quantitative metabolic staining with 3-(4,5-dimethylthiazol-2-yl)-2,5-diphenyltetrazolium bromide (MTT) (ref.: Denizot, F.; Lang, R. Rapid colorimetric assay for cell growth and survival: Modifications to the tetrazolium dye procedure giving improved sensitivity and reliability. J. Immunol. Meth. 1986, 89, 271-277) following a 3-day treatment.
Multidrug resistance is a major therapeutic problem in cancer chemotherapy. […]

[3] = tested on: HeLa S3; assay: XTT cytotoxicity assay, HeLa S3; details: Homo sapiens, HeLa S3; 72 h incubation; read-out: XTT, IC50 HeLa S3
Protocol: as §1
(§2) In addition, the anti-proliferative effect was tested against a human T-lymphoblastic leukemia line CCRF-CEM, promyelocytic leukemia HL-60 and cervical carcinoma HeLa S3 growing in liquid suspension. Cell viability was determined following a 3-day incubation using 2,3-bis-(2-methoxy-4-nitro-5-sulfophenyl)-2H-tetrazolium-5-carboxanilide (XTT) assay (ref.: Scudiero, D. A.; Shoemaker, R. H.; Paull, K. D.; Monks, A.; Tierney, S.; Nofziger, T. H.; Currens, M. J.; Seniff, D.; Boyd M. R. Evaluation of a Soluble Tetrazolium/Formazan Assay for Cell Growth and Drug Sensitivity in Culture Using Human and Other Tumor Cell Lines. Cancer Res. 1988, 48, 4827-4833).

[4] = tested on: HCV subtype 1B replicon in Huh-7 cells; assay: HCV sub-genomic reporter replicon assay, subtype 1B; details: Hepatitis C virus; Huh-7 cells, HCV subtype 1B replicon; read-out: Replicon 1B EC50
Protocol: (§3) Compounds were also tested in Huh-7 cells harboring sub-genomic reporter replicons derived from HCV subtypes 1B and 2A (ref.: Stuyver, L. J.; Whitaker, T.; McBrayer, T. R.; Hernandez-Santiago, B. I.; Lostia, S.; Tharnish, P. M.; Ramesh, M.; Chu, C. K.; Jordan, R.; Shi, J. X.; Rachakonda, S.; Watanabe, K. A.; Otto, M. J.; Schinazi, R. F. Antimicrob. Agents Chemother. 2003, 47, 244-254).

[5] = tested on: HL60; assay: XTT cytotoxicity assay, HL-60; details: Homo sapiens, HL-60; 72 h incubation; read-out: XTT, IC50 HL60
Protocol: as §1, §2

[6] = tested on: Huh-7 cells harboring replicon 1B; assay: Cytotoxicity in replicon 1B cells; details: HCV subtype 1B replicon
Protocol: as §3

`COc1ncnc2c1c(-c1ccccc1)cn2[C@@H]1O[C@H](CO)[C@@H](O)[C@H]1O` [Compound 1e, 4-Methoxy-5-phenyl-7-(β-D-ribofuranosyl)-7H-pyrrolo[2,3-d]pyrimidine] gave a pIC50 [1] of less than 4.70, a pIC50 [2] of less than 4.70 and a pIC50 [3] of less than 4.70. The pEC50 [4] was 4.68, the pIC50 [5] was less than 4.70 and the CC50 [6] was greater than 44 µM.

With `CSc1ncnc2c1c(-c1cc3ccccc3o1)cn2[C@@H]1O[C@H](CO)[C@@H](O)[C@H]1O` [Compound 2f, 5-(Benzofuran-2-yl)-4-methylsulfanyl-7-(β-D-ribofuranosyl)-7H-pyrrolo[2,3-d]pyrimidine] the pIC50 [1] was less than 4.70, the pIC50 [2] was less than 4.70 and the pIC50 [3] was 5.71. The pEC50 [4] was 5.10, the pIC50 [5] was 5.92 and the CC50 [6] was greater than 44 µM.

With `CN(C)c1ncnc2c1c(-c1cccs1)cn2[C@@H]1O[C@H](CO)[C@@H](O)[C@H]1O` [Compound 4c, 4-Dimethylamino-7-(β-D-ribofuranosyl)-5-(thiophen-2-yl)-7H-pyrrolo[2,3-d]pyrimidine] the pIC50 [1] was less than 4.70, the pIC50 [2] was less than 4.70 and the pIC50 [3] was less than 4.70. It also gave a pEC50 [4] of 4.78, a pIC50 [5] of 4.93 and a CC50 [6] greater than 44 µM.

`CNc1ncnc2c1c(-c1ccco1)cn2[C@@H]1O[C@H](CO)[C@@H](O)[C@H]1O` [Compound 3a, 5-(Furan-2-yl)-4-methylamino-7-(β-D-ribofuranosyl)-7H-pyrrolo[2,3-d]pyrimidine] gave a pIC50 [1] of 6.07, a pIC50 [2] of 6.64 and a pIC50 [3] of 5.30. It also gave a pEC50 [4] of 7.22, a pIC50 [5] of 6.21 and a CC50 [6] greater than 44 µM.

With `Cc1ncnc2c1c(-c1cccs1)cn2[C@@H]1O[C@H](CO)[C@@H](O)[C@H]1O` [Compound 5c, 4-Methyl-7-(β-D-ribofuranosyl)-5-(thiophen-2-yl)-7H-pyrrolo[2,3-d]pyrimidine] the pIC50 [1] was less than 4.82, the pIC50 [2] was less than 4.70 and the pIC50 [3] was less than 4.82. The pEC50 [4] was 5.18, the pIC50 [5] was 5.24 and the CC50 [6] was greater than 44 µM.

With `CNc1ncnc2c1c(-c1ccoc1)cn2[C@@H]1O[C@H](CO)[C@@H](O)[C@H]1O` [Compound 3b, 5-(Furan-3-yl)-4-methylamino-7-(β-D-ribofuranosyl)-7H-pyrrolo[2,3-d]pyrimidine] the pIC50 [1] was less than 4.70, the pIC50 [2] was less than 4.70 and the pIC50 [3] was less than 4.70. It also gave a pEC50 [4] of 4.44, a pIC50 [5] of less than 4.82 and a CC50 [6] greater than 44 µM.

Compound `CN(C)c1ncnc2c1c(-c1ccoc1)cn2[C@@H]1O[C@H](CO)[C@@H](O)[C@H]1O` [Compound 4b, 4-Dimethylamino-5-(furan-3-yl)-7-(β-D-ribofuranosyl)-7H-pyrrolo[2,3-d]pyrimidine] has a pIC50 [1] of 4.90, a pIC50 [2] of less than 4.70 and a pIC50 [3] of 5.04. It also gave a pEC50 [4] of 5.10, a pIC50 [5] of 5.94 and a CC50 [6] greater than 44 µM.

Work on `CSc1ncnc2c1c(-c1ccoc1)cn2[C@@H]1O[C@H](CO)[C@@H](O)[C@H]1O` [Compound 2b, 5-(Furan-3-yl)-4-methylsulfanyl-7-(β-D-ribofuranosyl)-7H-pyrrolo[2,3-d]pyrimidine] yielded a pIC50 [1] of less than 4.82, a pIC50 [2] of 7.40 and a pIC50 [3] of 5.27. For the same compound, the pEC50 [4] was 5.33, the pIC50 [5] was 6.44 and the CC50 [6] was greater than 44 µM.

`CNc1ncnc2c1ccn2[C@@H]1O[C@H](CO)[C@@H](O)[C@H]1O` [RC3, reference compound] was tested, and the pIC50 [1] was less than 4.70, the pIC50 [2] was less than 4.70 and the pIC50 [3] was less than 4.70. The pEC50 [4] was 6.09, the pIC50 [5] was 4.89 and the CC50 [6] was greater than 44 µM.

`COc1ncnc2c1c(-c1cccs1)cn2[C@@H]1O[C@H](CO)[C@@H](O)[C@H]1O` [Compound 1c, 4-Methoxy-7-(β-D-ribofuranosyl)-5-(thiophen-2-yl)-7H-pyrrolo[2,3-d]pyrimidine] was tested, and the pIC50 [1] was 4.86, the pIC50 [2] was 7.10 and the pIC50 [3] was 5.75. It also gave a pEC50 [4] of 5.97, a pIC50 [5] of 7.10 and a CC50 [6] greater than 44 µM.

In the case of `CSc1ncnc2c1c(-c1ccco1)cn2[C@@H]1O[C@H](CO)[C@@H](O)[C@H]1O` [Compound 2a, 5-(Furan-2-yl)-4-methylsulfanyl-7-(β-D-ribofuranosyl)-7H-pyrrolo[2,3-d]pyrimidine], the pIC50 [1] was 6.66, the pIC50 [2] was 7.70 and the pIC50 [3] was 6.27. The pEC50 [4] was 7.15, the pIC50 [5] was 6.92 and the CC50 [6] was 38.6 µM.

For `CNc1ncnc2c1c(-c1cccs1)cn2[C@@H]1O[C@H](CO)[C@@H](O)[C@H]1O` [Compound 3c, 4-Methylamino-7-(β-D-ribofuranosyl)-5-(thiophen-2-yl)-7H-pyrrolo[2,3-d]pyrimidine], the pIC50 [1] was less than 4.70, the pIC50 [2] was less than 4.70 and the pIC50 [3] was less than 4.70. It also gave a pEC50 [4] of less than 4.36, a pIC50 [5] of less than 4.70 and a CC50 [6] greater than 44 µM.

`CN(C)c1ncnc2c1c(-c1ccco1)cn2[C@@H]1O[C@H](CO)[C@@H](O)[C@H]1O` [Compound 4a, 4-Dimethylamino-5-(furan-2-yl)-7-(β-D-ribofuranosyl)-7H-pyrrolo[2,3-d]pyrimidine] was tested, and the pIC50 [1] was less than 4.82, the pIC50 [2] was 6.60 and the pIC50 [3] was 5.92. It also gave a pEC50 [4] of 5.83, a pIC50 [5] of 6.66 and a CC50 [6] greater than 44 µM.

With `Cc1ncnc2c1c(-c1ccsc1)cn2[C@@H]1O[C@H](CO)[C@@H](O)[C@H]1O` [Compound 5d, 4-Methyl-7-(β-D-ribofuranosyl)-5-(thiophen-3-yl)-7H-pyrrolo[2,3-d]pyrimidine] the pIC50 [1] was 5.33, the pIC50 [2] was 6.34 and the pIC50 [3] was 4.84. For the same compound, the pEC50 [4] was 5.35, the pIC50 [5] was 6.46 and the CC50 [6] was greater than 44 µM.
